The values that follow come from publication PMC4806471, “Oral proteasome inhibitor with strong preclinical efficacy in myeloma models” (BMC Cancer, 2016).

In one data set the target is T1, 20S proteasome T-L, β2 (Homo sapiens, UniProt Q99436).
T1 sequence (Q99436 44-277): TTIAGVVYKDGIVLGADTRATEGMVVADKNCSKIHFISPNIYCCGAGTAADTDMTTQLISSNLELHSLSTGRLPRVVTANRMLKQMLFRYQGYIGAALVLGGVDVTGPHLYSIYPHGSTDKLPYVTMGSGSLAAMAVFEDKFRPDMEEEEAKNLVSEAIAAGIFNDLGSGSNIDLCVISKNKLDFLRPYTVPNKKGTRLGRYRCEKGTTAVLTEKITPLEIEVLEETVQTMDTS
Nature of the data set: In vitro 20S proteasome inhibition in RPMI8226 cell lysate, Z-Ala-Arg-Arg-AMC substrate. Conditions: RPMI8226 cellular lysates, 1 h at 37 °C. The format is biochemical. On the procedure: (§1) Pomalidomide was purchased from Tokyo Chemical Industry.
(§2) RPMI8226 cell lysate was used for the in vitro proteasome inhibition assay. Cells were washed with PBS and resuspended in 20 mM Tris–HCl, pH 7.5. Then, cells were lysed on ice by dounce homogenization and the supernatants were collected by centrifugation. The assay was conducted in 96-well plates by incubating 2 μg of lysates with serial dilutions of a test compound and 20 μM of substrate at 37 °C for 1 h. After incubation, production of hydrolyzed AMC groups was measured using a FlexStation II Fluorometer (Molecular Devices) or using a Spectra MAX Gemini Fluorometer (Molecular Devices) with an excitation filter of 380 nm and an emission filter of 460 nm.

The next data set addresses T2, 20S proteasome C-L, β1 (Homo sapiens, UniProt P28072+Q99436).
T2 construct: endogenous in cells; host or cells: RPMI8226 (human multiple myeloma)
Nature of the data set: In vitro 20S proteasome inhibition in RPMI8226 cell lysate, Z-Leu-Leu-Glu-AMC substrate. It counts as biochemical. Conditions: RPMI8226 cellular lysates, 1 h at 37 °C. On the procedure:
as §1, §2

A further data set has as its system proteasome CT-L activity. Put plainly: Binding kinetics: CT-L activity in RPMI8226 cells at different time points after 1-h pulse treatment. It counts as cell-based, human. Conditions: CT-L activity in RPMI8226 cells after 1-h pulse treatment.
For data set [1], the system named is CD138+ cells from bone marrow of MM patients. Nature of the data set: Viability of primary myeloma cells from MM patients (CellTiter-Glo). Conditions: patient 14 sample (bortezomib- and ixazomib-refractory), 48 h, % over DMSO control. It counts as cell-based, human. How it is done: (§3) Primary MM cells were retrieved from bone marrow of patients and were enriched by Ficoll density centrifugation to a purity of >90 %, as necessary. Purity was assessed by cytomorphology on stained samples. CD138^+ cells were collected using magnetic beads (Miltenyi Biotec) and plated at a density of 8 × 10^4 cells per well onto 96-well plates in RPMI-1640 (WELGENE) containing 10 % FBS (WELGENE), 1 % penicillin-streptomycin-amphotericin B (Gibco), and 2 mM L-glutamine. Cells were then treated with a serial dilution of compound in medium containing a final concentration of 0.2 % DMSO. Cultures were incubated for 48 h and cells were then assayed for viability using the CellTiter-Glo Luminescent Cell Viability Assay kit (Promega).
In general terms: In ATP-based viability assays light output follows the ATP content of the culture.

The nature of data set [2]: Cytotoxicity in normal PBMC from healthy donors (CellTiter-Glo). It counts as cell-based. Conditions: human, 10,000 nM, read-out: Viability of normal PBMC at highest concentration tested. How it is done:
as §3
Peripheral blood mononuclear cells (PBMCs) isolated from the heparinized blood samples of normal healthy donors were also plated and processed as described above.

For data set [3], the system named is MM.1S xenografts. Nature of the data set: Anti-tumor activity of repeat oral dosing in MM.1S xenograft model. Conditions: 5 mg/kg oral twice a week. It counts as in vivo, mice. How it is done:
(§4) In vivo efficacy studies were performed in female BALB/c nude mice (8 weeks old) purchased from ORIENT Bio or female NOD.SCID mice (11–13 weeks old) purchased from HFK Bioscience. The animals were housed and maintained in a controlled environment including a 12 h light and 12 h dark cycle with automatic timers and received food and water ad libitum. All experiments were done under protocols approved by the Institutional Animal Care and Use Committee (IACUC). Moribund animals were sacrificed when necessary and animal carcasses were disposed of according to IACUC guidelines.
1 × 10^7 MM.1S tumor cells in 0.1 ml of Dulbecco’s Phosphate-Buffered Saline (1:1 matrigel) were implanted subcutaneously into the right flank of female athymic nude mice. Tumor growth was monitored with calipers and mice were divided into homogeneous cohorts according to their initial tumor volume. […] The compounds were formulated in 0.5 % methyl cellulose and administered at the indicated doses and regimens by oral gavage at a dose volume of 10 mL/kg. For the RPMI8226 model, a total of 1 × 10^7 cells in 0.2 ml of PBS (1:1 matrigel) were implanted subcutaneously into the hind flank of female NOD.SCID mice. Whole blood was collected by cardiac puncture into tubes containing sodium heparin and cells were harvested by centrifugation. Blood cell pellets and tumor tissues were homogenized in lysis buffer (50 mM Tris–HCl, pH 8.0, 5 mM EDTA, 150 mM NaCl, 0.5 % Nonidet P-40, 0.5 mM phenylmethylsulfonyl fluoride, and 0.5 mM dithiothreitol) for 30 min at 4 °C. The lysates were centrifuged at 14,000 × g for 30 min, and the supernatants were collected as whole blood cell extracts and tumor cell extracts, respectively, for pharmacodynamic analysis. […] The mean, standard deviation (SD), and standard error of the mean (SEM) were calculated for each experimental group, and statistical analyses were performed using standard two tailed Student’s t-test (significance defined as P ≤ 0.05).

The subject of a further data set is RPMI8226 xenografts. Put plainly: Anti-tumor activity of repeat dosing in RPMI8226 xenograft model. It counts as in vivo. Conditions: 5 mg/kg oral, the day after the first treatment, NOD.SCID mice. How it is done: as §4
(§5) 1 × 10^7 MM.1S tumor cells in 0.1 ml of Dulbecco’s Phosphate-Buffered Saline (1:1 matrigel) were implanted subcutaneously into the right flank of female athymic nude mice. Tumor growth was monitored with calipers and mice were divided into homogeneous cohorts according to their initial tumor volume. […] The compounds were formulated in 0.5 % methyl cellulose and administered at the indicated doses and regimens by oral gavage at a dose volume of 10 mL/kg. […] The mean, standard deviation (SD), and standard error of the mean (SEM) were calculated for each experimental group, and statistical analyses were performed using standard two tailed Student’s t-test (significance defined as P ≤ 0.05).

Data set [4] relates to MM.1S xenografts. Nature of the data set: MM.1S xenograft study of LC53-0151 with or without pomalidomide. It counts as in vivo, mice. Conditions: pomalidomide 2.5 mg/kg oral 5 days per week, 3 weeks; not statistically significant. On the procedure: as §4
as §5, with “0.05). […]” for “0.05).”

Molecules are shown by their SMILES.

As to `CC(C)C[C@H](NC(=O)CNC(=O)c1cc(Cl)ccc1Cl)B(O)O` [Ixazomib], the IC50 against 20S proteasome T-L, β2 was over 10000 nM; against 20S proteasome C-L, β1, 6 to 7 nM. In addition, the Binding kinetics result with proteasome CT-L activity was “reversible”. In data set [1], the “Viability at 12.5 nM” value is recorded as “did not show any effect on viability”. The viability at 48 h, 10000 nM in data set [2] was over 50%. For the same compound, the “Tumor volume, % of start tumor volume (maximum regression)” value with MM.1S xenografts [3] (day 8) is listed as 36%. Also, the “Tumor growth inhibition compared to vehicle control” value in the data set on MM.1S xenografts [3] (day 15) amounted to 72%. In addition, the “Tumor volume, % of start tumor volume” value with MM.1S xenografts [3] (day 15) amounted to 58%. Moreover, the “Mortality in efficacy model” value with RPMI8226 xenografts is on record as “all 8 mice died or were euthanized”.
For the compound `CC(C)C[C@H](NC(=O)[C@H](CCc1ccccc1)NC(=O)CN1CCOCC1)C(=O)N[C@@H](Cc1ccccc1)C(=O)N[C@@H](CC(C)C)C(=O)[C@@]1(C)CO1` [Carfilzomib], the Binding kinetics entry with proteasome CT-L activity was “irreversible”.
On to `Nc1cccc2c1C(=O)N(C1CCC(=O)NC1=O)C2=O` (stereo not drawn) [pomalidomide, Pomalidomide], for which the “Reduction of tumor volume compared to vehicle-treated mice” value in the data set on MM.1S xenografts [4] is on record as 10%.
As to `CC(C)C[C@H](NC(=O)[C@H](Cc1ccccc1)NC(=O)c1cnccn1)B(O)O` [Bortezomib], in the data set on proteasome CT-L activity, the Binding kinetics entry is “reversible”.

The IC50 is the midpoint of a concentration-inhibition curve. Lower therefore signals greater potency.
